The values below come from ChEMBL document CHEMBL1201862, “PubChem BioAssay data set” (2004).

Active and inactive are the calls of the source.

Broadly, the IC50 is the concentration needed to halve the response being measured. What is called EC50 is the midpoint of the concentration-response curve. Broadly, the AC50 is the concentration giving half of the maximal activity seen.

Test [1] concerns the target T1, Dual specificity protein phosphatase 6 (Rattus norvegicus, UniProt Q64346).
T1 sequence (Q64346 whole entry): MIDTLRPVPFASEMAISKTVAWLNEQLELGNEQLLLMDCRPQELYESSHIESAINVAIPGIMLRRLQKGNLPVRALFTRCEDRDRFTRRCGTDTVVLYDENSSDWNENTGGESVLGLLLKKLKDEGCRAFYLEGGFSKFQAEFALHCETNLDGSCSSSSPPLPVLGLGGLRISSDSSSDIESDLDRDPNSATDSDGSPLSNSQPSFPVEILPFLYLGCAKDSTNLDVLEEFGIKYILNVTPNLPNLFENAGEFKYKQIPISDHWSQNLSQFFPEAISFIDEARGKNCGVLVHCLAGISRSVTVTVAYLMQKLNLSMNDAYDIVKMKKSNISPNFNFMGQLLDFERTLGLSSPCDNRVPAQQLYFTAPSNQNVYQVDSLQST
The class given is functional.

The target in test [2] is Heat shock 70 kDa protein 1A (Homo sapiens, UniProt P0DMV8). Description: inhibition of Hsp70 binding activity – biochemical, fluorescence polarization, SAR follow-up (AID 1072). On the technique in general: Polarisation of emitted light reports the rotation of a fluorescent probe.
Test [3] addresses T2, Zinc finger protein mex-5 (Caenorhabditis elegans, UniProt Q9XUB2).
T2 sequence (Q9XUB2 whole entry): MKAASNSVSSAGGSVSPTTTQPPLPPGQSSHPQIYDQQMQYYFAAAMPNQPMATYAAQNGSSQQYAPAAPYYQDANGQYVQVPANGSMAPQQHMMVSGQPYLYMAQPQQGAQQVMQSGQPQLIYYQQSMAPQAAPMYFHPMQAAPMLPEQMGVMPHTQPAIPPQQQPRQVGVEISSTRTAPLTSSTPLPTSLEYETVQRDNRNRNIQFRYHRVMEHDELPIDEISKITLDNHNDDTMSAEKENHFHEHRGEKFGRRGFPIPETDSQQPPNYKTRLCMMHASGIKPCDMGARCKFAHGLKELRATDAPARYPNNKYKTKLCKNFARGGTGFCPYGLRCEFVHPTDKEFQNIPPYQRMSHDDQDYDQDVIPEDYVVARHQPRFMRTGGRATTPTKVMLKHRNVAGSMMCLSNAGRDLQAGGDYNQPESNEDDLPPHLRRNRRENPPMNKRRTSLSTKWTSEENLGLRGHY
As to the kind of experiment: potency of MEX-5 RNA-binding blockers – biochemical, C. elegans, fluorescence polarization, dose response (AID 1960).

Test [4] has as its target Glyceraldehyde-3-phosphate dehydrogenase (Homo sapiens, UniProt P04406).
Test [5] has as its target Heat shock cognate 71 kDa protein (Homo sapiens, UniProt P11142). Description: In Vitro Hsc70 Dose Response Fluorescence Polarization Assay. [Related pubchem assays: 1072 ].
The target in test [6] is T1, Dual specificity protein phosphatase 6.
In test [7] the target is T3, Tyrosine-protein phosphatase non-receptor type 7 (Homo sapiens, UniProt P35236).
T3 sequence (P35236 whole entry): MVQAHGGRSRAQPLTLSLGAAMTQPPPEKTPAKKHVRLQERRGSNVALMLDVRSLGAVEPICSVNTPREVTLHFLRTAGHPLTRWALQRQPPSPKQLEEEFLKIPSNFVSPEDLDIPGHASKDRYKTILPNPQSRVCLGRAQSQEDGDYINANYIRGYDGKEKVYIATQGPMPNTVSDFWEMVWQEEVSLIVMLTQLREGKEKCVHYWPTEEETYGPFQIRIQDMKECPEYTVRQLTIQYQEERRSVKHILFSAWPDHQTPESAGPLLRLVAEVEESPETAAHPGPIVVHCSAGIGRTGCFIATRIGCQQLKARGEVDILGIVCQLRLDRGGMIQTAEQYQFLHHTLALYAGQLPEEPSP
Format: functional.

Test [8] has as its target T4, RNA-binding protein pos-1 (Caenorhabditis elegans, UniProt G5EF15).
T4 sequence (G5EF15 whole entry): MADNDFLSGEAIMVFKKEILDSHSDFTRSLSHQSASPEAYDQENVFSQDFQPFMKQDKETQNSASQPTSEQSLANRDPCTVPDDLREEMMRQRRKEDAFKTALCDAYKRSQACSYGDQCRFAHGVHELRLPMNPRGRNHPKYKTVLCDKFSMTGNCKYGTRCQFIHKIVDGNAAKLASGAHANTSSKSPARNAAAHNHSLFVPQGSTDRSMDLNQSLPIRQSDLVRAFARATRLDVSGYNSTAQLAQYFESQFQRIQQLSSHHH
As to the kind of experiment: disruptors of C. elegans POS-1 RNA interaction – biochemical, fluorescence polarization, dose response (AID 1964).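 Also: purified POS-1 fused to maltose binding protein made in E. coli; potency of compounds blocking POS-1 binding to fluorescent RNA.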

Test [9] has as its target Luciferin 4-monooxygenase (Photinus pyralis, UniProt P08659). As to the kind of experiment: inhibition of purified Photinus pyralis luciferase – biochemical, luminescence, dose response (AID 1891).
Test [10] in a line: blockers of SFLLRN-triggered platelet ATP secretion – cell-based, human platelets, luminescence, dry powder, dose response (AID 493100). Format: functional.
Test [11] in a line: Luminescence Cell-Based Dose Confirmation HTS to Identify Inhibitors of Platelet Dense Granule Release. [Related pubchem assays: 1663 (Primary HTS), 1678 (Summary of Project)]. Format: functional.
Test [12] can be described thus: Luminescence Cell-Based Dose Response Follow up to Identify Inhibitors of Platelet Dense Granule Release. [Related pubchem assays (depositor defined):AID1663, AID1678, AID1889, AID2519]. The class given is functional.
Test [13] is described as follows: SFLLRN-induced P-Selectin Platelet Surface Expression Measured in Cell-Based System Using Flow Cytometry - 2016-03_Inhibitor_Dose_DryPowder_Activity_Set3. [Related pubchem assays (depositor defined):AID1678]. Format: functional. Background: In flow cytometry, cells or beads pass a laser one at a time.
Test [14] is described as follows: PAR1 agonist-induced platelet activation inhibition – cell-based, fluorescence, flow cytometry, human platelets, dose response (AID 2511). Format: functional.
Test [15] is described as follows: Luminescence Cell-Based Dose Retest to Confirm Inhibitors of Cancer Stem Cells. [Related pubchem assays (depositor defined):AID2717, AID2721]. The note with it: Homo sapiens. The class given is functional.
For test [16], the target named is T5, Microphthalmia-associated transcription factor (Homo sapiens, UniProt O75030).
T5 sequence (O75030 whole entry): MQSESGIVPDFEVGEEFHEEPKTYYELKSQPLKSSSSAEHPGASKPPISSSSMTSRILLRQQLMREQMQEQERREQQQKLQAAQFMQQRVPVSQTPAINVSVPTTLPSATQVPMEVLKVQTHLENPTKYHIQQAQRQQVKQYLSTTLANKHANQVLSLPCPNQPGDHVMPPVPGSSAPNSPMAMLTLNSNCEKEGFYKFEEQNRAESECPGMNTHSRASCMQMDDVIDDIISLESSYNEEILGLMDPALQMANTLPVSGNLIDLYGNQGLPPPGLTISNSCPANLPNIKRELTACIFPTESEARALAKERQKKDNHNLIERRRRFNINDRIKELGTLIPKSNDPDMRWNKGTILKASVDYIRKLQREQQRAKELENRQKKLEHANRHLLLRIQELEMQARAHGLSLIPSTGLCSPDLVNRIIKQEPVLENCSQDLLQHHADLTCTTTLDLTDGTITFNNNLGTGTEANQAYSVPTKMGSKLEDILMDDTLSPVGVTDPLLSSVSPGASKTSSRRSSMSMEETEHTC
Description: reducers of TRPM1 reporter luminescence, concentration series – cell-based, SK-MEL-5, cherry-picked, set 3, MITF inhibitor project, dose response (AID 493073).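 Also: SK-MEL-5 melanoma cells with luciferase driven by the MITF target TRPM1 promoter.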 The class given is functional.

Test [17] can be described thus: alpha-synuclein stem-loop luciferase translation blockers – H4 neuroglioma cells, luminescence, confirmation (AID 1988). The class given is functional, cell-based.
Test [18] is described as follows: Luminescence Cell-Based Dose Response HTS to Identify Inhibitors of 5'UTR Stem-Loop Driven Prion Protein mRNA Translation in H4 Neuroglioblastoma Cells. [Related pubchem assays: 1827 (Project Summary), 1813 (Primary HTS)]. Format: functional.
The test system of test [19] is A-375. Description: MITF: Counter assay: A375 proliferation Measured in Cell-Based System Using Plate Reader - 2084-03_Inhibitor_Dose_DryPowder_Activity. [Related pubchem assays (depositor defined):AID488944]. Format: functional. The note with it: Homo sapiens.
A short description of test [20]: luciferase reporter signal suppression in cells – H4 neuroglioma cells, luminescence, dose response (AID 1990). The class given is functional, cell-based.
In test [21] the test system is Escherichia coli. Description: microbe, parasite or virus in culture.

Sequence of Luciferin 4-monooxygenase (P08659 whole entry): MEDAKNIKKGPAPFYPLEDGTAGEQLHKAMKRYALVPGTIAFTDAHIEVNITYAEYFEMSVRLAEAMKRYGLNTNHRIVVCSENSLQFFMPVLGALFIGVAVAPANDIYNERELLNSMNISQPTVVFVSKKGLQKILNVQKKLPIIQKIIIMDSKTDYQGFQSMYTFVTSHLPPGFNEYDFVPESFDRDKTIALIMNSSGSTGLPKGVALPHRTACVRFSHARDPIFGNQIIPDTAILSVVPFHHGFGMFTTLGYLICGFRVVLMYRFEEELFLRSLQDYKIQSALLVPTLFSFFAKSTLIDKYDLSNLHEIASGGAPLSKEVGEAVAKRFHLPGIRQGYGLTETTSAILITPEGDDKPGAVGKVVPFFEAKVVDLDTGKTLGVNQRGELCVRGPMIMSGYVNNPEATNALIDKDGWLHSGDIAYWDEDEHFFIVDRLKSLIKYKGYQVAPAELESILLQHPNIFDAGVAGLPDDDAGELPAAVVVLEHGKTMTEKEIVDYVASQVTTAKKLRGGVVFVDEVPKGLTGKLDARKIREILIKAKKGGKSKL
Sequence of Heat shock cognate 71 kDa protein (P11142 whole entry): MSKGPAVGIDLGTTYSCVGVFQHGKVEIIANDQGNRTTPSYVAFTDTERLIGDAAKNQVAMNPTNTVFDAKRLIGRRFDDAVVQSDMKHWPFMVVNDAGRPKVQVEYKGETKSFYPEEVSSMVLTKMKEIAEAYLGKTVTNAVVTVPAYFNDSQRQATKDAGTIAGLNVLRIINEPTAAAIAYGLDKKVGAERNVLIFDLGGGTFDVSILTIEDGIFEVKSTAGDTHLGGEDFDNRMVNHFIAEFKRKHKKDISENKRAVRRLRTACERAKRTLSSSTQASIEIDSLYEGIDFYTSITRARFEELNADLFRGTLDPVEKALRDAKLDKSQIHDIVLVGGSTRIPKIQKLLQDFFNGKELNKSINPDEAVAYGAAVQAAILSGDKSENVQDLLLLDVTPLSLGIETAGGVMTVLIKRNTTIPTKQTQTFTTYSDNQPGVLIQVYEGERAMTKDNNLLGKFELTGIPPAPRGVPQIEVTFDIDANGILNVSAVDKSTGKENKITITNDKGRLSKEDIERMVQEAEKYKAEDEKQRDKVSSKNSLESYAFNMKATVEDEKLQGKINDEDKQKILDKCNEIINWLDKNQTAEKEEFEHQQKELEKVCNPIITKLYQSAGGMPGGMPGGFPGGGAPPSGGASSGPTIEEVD
Sequence of Heat shock 70 kDa protein 1A (P0DMV8 whole entry): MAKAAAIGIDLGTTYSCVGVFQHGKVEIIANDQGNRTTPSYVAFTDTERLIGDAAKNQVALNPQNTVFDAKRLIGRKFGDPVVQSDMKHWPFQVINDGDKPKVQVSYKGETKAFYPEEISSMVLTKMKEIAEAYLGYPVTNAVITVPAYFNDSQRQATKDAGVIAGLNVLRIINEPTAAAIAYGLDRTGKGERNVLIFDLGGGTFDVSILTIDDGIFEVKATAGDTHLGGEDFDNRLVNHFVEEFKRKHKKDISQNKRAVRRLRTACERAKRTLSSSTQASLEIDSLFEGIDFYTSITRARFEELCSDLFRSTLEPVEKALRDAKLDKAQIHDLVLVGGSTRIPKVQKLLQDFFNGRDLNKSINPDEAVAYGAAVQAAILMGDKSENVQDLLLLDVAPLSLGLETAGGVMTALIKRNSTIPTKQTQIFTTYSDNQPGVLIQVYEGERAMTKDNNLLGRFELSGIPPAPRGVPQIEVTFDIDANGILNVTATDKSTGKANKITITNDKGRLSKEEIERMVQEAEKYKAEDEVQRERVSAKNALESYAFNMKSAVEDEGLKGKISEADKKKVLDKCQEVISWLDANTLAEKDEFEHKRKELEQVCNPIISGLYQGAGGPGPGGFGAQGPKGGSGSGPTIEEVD
Sequence of Glyceraldehyde-3-phosphate dehydrogenase (P04406 whole entry): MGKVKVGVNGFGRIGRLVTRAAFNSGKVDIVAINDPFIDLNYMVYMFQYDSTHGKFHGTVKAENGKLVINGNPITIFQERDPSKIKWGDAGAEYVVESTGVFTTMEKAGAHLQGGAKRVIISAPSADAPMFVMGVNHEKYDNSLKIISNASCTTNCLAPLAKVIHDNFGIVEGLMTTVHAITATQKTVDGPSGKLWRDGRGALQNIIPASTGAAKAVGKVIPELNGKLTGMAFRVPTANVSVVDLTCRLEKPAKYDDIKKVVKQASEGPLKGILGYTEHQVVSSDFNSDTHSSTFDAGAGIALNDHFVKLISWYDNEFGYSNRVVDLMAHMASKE

As for `O=C(O)C1Nc2c(cccc2C(F)(F)F)C2C=CCC12` (stereo unspecified), the IC50 in [1] is 7.72 µM (active); in test [2], 8.36 µM (active); in [4], > 100 µM (not active); in test [5], 20.2 µM (active); in [6], 9.2 µM (active); in test [7] it was 5.06 µM (active). In addition, the EC50 is 17.7 µM (active) in test [3] and 26.7 µM (active) in test [8].

Regarding `CCCC(=O)Nc1cccc(NC(=O)c2ccccc2Br)c1`, the 50% effective concentration (EC50) was > 112 µM (not active) in test [9], 1.87 µM (active) in test [11], 4.87 µM (active) in [12] and < 0.3 µM (active) in test [14]. The AC50 is 11.2 µM (active) in [10] and < 0.156 µM (active) in test [13].

Turning to `CC(=O)Nc1sc(C)c(C)c1C(=O)OCC(=O)N(CC(C)C)c1c(N)n(Cc2ccccc2)c(=O)[nH]c1=O`, the AC50 in test [15] was 1.64 µM (active); in [16], 5.29 µM (active); in test [19] it was 7.68 µM (active). The values for the EC50 in test [17], in test [18] and in [20] were 3.96 µM (active), 9.81 µM (active) and 10.2 µM (active), respectively.

Consider `CCCCOC(=O)C1=C(C)NC(=O)NC1c1ccc2c(c1)OCO2` (stereo unspecified), for which the half-maximal activity concentration (AC50) in test [21] was 23.6 µM (active).
